Measured values reported in patent publication US5041567A, “Antibacterial monic acid derivatives” (Beecham Group plc, priority 1982, dated 1991).
≈ marks a conversion by molar mass, not a printed value.

Legend:
M. suipneumoniae HK(2) = assay: MIC against mycoplasma in vitro; type: cell-based; settings: Mesomycoplasma hyopneumoniae, 144 h
S. typhimurium S18 = assay: MIC against veterinary bacteria in vitro; settings: Salmonella enterica, TYPHIMURIUM, 18 h
Experimental: (§1) The activity of the compounds of the Examples against various veterinarily important bacteria, was assayed in vitro using two-fold serial dilutions in Diagnostic Sensitivity Test Agar inoculated with 10^4 organisms.

[1] = system: Strep. suis (group D) SPS11; assay: MIC against veterinary bacteria in vitro; settings: Streptococcus suis, 18 h
Experimental: as §1

M. suipneumoniae MS 16 = assay: MIC against mycoplasma in vitro; type: cell-based; settings: Mesomycoplasma hyopneumoniae, MS16, 144 h
K. aerogenes A = assay: MIC against human bacteria in vitro; type: cell-based; settings: Klebsiella aerogenes, 18 h
Bord. bronchiseptica B08 = assay: MIC against veterinary bacteria in vitro; settings: Bordetella bronchiseptica, B08, 18 h
Experimental: as §1

Strep. pneumoniae CN33 = assay: MIC against human bacteria in vitro; type: cell-based; settings: Streptococcus pneumoniae; Strep. pneumoniae CN33; 5% chocolated horse blood agar, 18 hours; read-out: MIC
Staph. aureus W2827 = assay: MIC against human bacteria in vitro; type: cell-based; settings: Staphylococcus aureus, W2827, 18 h
M. suipneumoniae JF 435 = assay: MIC against mycoplasma in vitro; type: cell-based; settings: Mesomycoplasma hyopneumoniae, JF435, 144 h
Strep. dysgalactiae SPD1 = assay: MIC against veterinary bacteria in vitro; settings: Streptococcus dysgalactiae, SPD1, 18 h
Experimental: as §1

[2] = system: Staph. aureus B4 (pen. resistant); assay: MIC against veterinary bacteria in vitro; settings: Staphylococcus aureus, 18 h
Experimental: as §1

M. suipneumoniae Str. 11 = assay: MIC against mycoplasma in vitro; type: cell-based; settings: Mesomycoplasma hyopneumoniae, STR.11, 144 h
[3] = system: Staph. aureus 152 (pen. sens); assay: MIC against veterinary bacteria in vitro; settings: Staphylococcus aureus, 18 h
Experimental: as §1

[4] = system: Erysipelothrix rhusiopathiae NCTC 8163; assay: MIC against veterinary bacteria in vitro; settings: Erysipelothrix rhusiopathiae, NCTC8163, 18 h
Experimental: as §1

[5] = system: M. suipneumoniae J2206/183^b; assay: MIC against mycoplasma in vitro; type: cell-based; settings: Mesomycoplasma hyopneumoniae, 144 h
Strep. agalactiae 2788-B = assay: MIC against human bacteria in vitro; type: cell-based; settings: Streptococcus agalactiae; Strep. agalactiae 2788-B; 5% chocolated horse blood agar, 18 hours; read-out: MIC
P. mirabilis 889 = assay: MIC against human bacteria in vitro; type: cell-based; settings: Proteus mirabilis, 889, 18 h
Past. multocida PA2 = assay: MIC against veterinary bacteria in vitro; settings: Pasteurella multocida, PA2, 18 h
Experimental: as §1

Strep. faecalis I = assay: MIC against human bacteria in vitro; type: cell-based; settings: Enterococcus faecalis, 18 h
M. hyorhinis ATCC 23234 = assay: MIC against mycoplasma in vitro; type: cell-based; settings: Mesomycoplasma hyorhinis, ATCC23234, 144 h; M. hyorhinis ATCC 23234; 6 days, 37° C.; read-out: MIC
M. dispar NCTC 10125 = assay: MIC against mycoplasma in vitro; type: cell-based; settings: 144 h
Sarcina lutea 8340 = assay: MIC against human bacteria in vitro; type: cell-based; settings: Micrococcus luteus, 8340, 18 h
M. suipneumoniae NB12 = assay: MIC against mycoplasma in vitro; type: cell-based; settings: Mesomycoplasma hyopneumoniae, NB12, 144 h
[6] = system: M. suipneumoniae PW/C/210; assay: MIC against mycoplasma in vitro; type: cell-based; settings: Mesomycoplasma hyopneumoniae, 144 h
M. hyorhinis ATCC 25021 = assay: MIC against mycoplasma in vitro; type: cell-based; settings: Mesomycoplasma hyorhinis, ATCC25021, 144 h; M. hyorhinis ATCC 25021; 6 days, 37° C.; read-out: MIC
[7] = system: M. suipneumoniae NCTC 10110; assay: MIC against mycoplasma in vitro; type: cell-based; settings: Mesomycoplasma hyopneumoniae, NCTC10110, 144 h
[8] = system: M. bovigenitalium ATCC 14173; assay: MIC against mycoplasma in vitro; type: cell-based; settings: 144 h
[9] = system: Pasteurella multocida 1633; assay: MIC against human bacteria in vitro; type: cell-based; settings: Pasteurella multocida, 1633, 18 h
M. suipneumoniae UCD 1 = assay: MIC against mycoplasma in vitro; type: cell-based; settings: Mesomycoplasma hyopneumoniae, UCD1, 144 h
[10] = system: Corynebacterium pyogenes CY1; assay: MIC against veterinary bacteria in vitro; settings: CY1, 18 h
Experimental: as §1

M. gallisepticum S6 = assay: MIC against mycoplasma in vitro; type: cell-based; settings: Mycoplasmoides gallisepticum, S6, 144 h
Staph. aureus Oxford [11] = assay: MIC against human bacteria in vitro; type: cell-based; settings: Staphylococcus aureus, 18 h
Staph. aureus Oxford [12] = assay: MIC against veterinary bacteria in vitro; settings: Staphylococcus aureus, 18 h
Experimental: as §1

M. suipneumoniae TAM 6N = assay: MIC against mycoplasma in vitro; type: cell-based; settings: Mesomycoplasma hyopneumoniae, TAM6N, 144 h
M. bovis NCTC 10131 = assay: microbe, parasite or virus in culture; type: cell-based; settings: NCTC10131, 144 h

CSc1ccc(-c2cnc(/C=C(\C)C[C@@H]3OC[C@H](C[C@@H]4O[C@H]4[C@@H](C)[C@H](C)O)[C@@H](O)[C@H]3O)o2)cc1 [Example 9, 5-p-methylthiophenyl-2-(1-normon-2-yl)oxazole A]
MIC (M. suipneumoniae HK(2)): 0.5 mg/L (≈ 1.02 µM)
MIC (S. typhimurium S18): > 80 mg/L
MIC [1]: 10 mg/L (≈ 20.4 µM)
MIC (M. suipneumoniae MS 16): 0.5 mg/L (≈ 1.02 µM)
MIC (K. aerogenes A): > 100 mg/L
MIC (Bord. bronchiseptica B08): 40 mg/L (≈ 81.7 µM)
MIC (Strep. pneumoniae CN33): 10 mg/L (≈ 20.4 µM)
MIC (Staph. aureus W2827): 5 mg/L (≈ 10.2 µM)
MIC (M. suipneumoniae JF 435): 0.5 mg/L (≈ 1.02 µM)
MIC (Strep. dysgalactiae SPD1): 0.625 mg/L (≈ 1.28 µM)
MIC [2]: 1.25 mg/L (≈ 2.55 µM)
MIC (M. suipneumoniae Str. 11): 0.5 mg/L (≈ 1.02 µM)
MIC [3]: 0.625 mg/L (≈ 1.28 µM)
MIC [4]: 80 mg/L (≈ 163 µM)
MIC [5]: 0.5 mg/L (≈ 1.02 µM)
MIC (Strep. agalactiae 2788-B): 10 mg/L (≈ 20.4 µM)
MIC (P. mirabilis 889): > 100 mg/L
MIC (Past. multocida PA2): 5 mg/L (≈ 10.2 µM)
MIC (Strep. faecalis I): > 100 mg/L
MIC (M. hyorhinis ATCC 23234): 0.5 mg/L (≈ 1.02 µM)
MIC (M. dispar NCTC 10125): 0.1 mg/L (≈ 0.204 µM)
MIC (Sarcina lutea 8340): > 100 mg/L
MIC (M. suipneumoniae NB12): 0.5 mg/L (≈ 1.02 µM)
MIC [6]: 0.5 mg/L (≈ 1.02 µM)
MIC (M. hyorhinis ATCC 25021): 0.5 mg/L (≈ 1.02 µM)
MIC [7]: 0.5 mg/L (≈ 1.02 µM)
MIC [8]: 0.1 mg/L (≈ 0.204 µM)
MIC [9]: 5 mg/L (≈ 10.2 µM)
MIC (M. suipneumoniae UCD 1): 0.5 mg/L (≈ 1.02 µM)
MIC [10]: 80 mg/L (≈ 163 µM)
MIC (M. gallisepticum S6): 1 mg/L (≈ 2.04 µM)
MIC (Staph. aureus Oxford [11]): 2.5 mg/L (≈ 5.11 µM)
MIC (Staph. aureus Oxford [12]): 0.625 mg/L (≈ 1.28 µM)
MIC (M. suipneumoniae TAM 6N): 0.5 mg/L (≈ 1.02 µM)
MIC (M. bovis NCTC 10131): 0.05 mg/L (≈ 0.102 µM)
